From ChEMBL document CHEMBL5620430, “Design, synthesis and biological evaluation of indazole derivatives as selective covalent inhibitors of FGFR4 in wild-type and gatekeeper mutants” (Eur J Med Chem, 2023) come the findings set out here.

In data set [1] the test system is Huh-7. Description: cells. The following applies: Homo sapiens.
Description: Antiproliferative activity against human Huh-7 cells measured after 24 to 48 hrs by MTT assay
The target in data set [2] is Fibroblast growth factor receptor 1 (Homo sapiens, UniProt P11362).
Description: Inhibition of FGFR1 (unknown origin)
Data set [3] concerns the target Fibroblast growth factor receptor 4 (Homo sapiens, UniProt P22455).
Description: Inhibition of FGFR4 (445 to 753 residues) (unknown origin) expressed in Escherichia coli
Data set [4] has as its system BaF3. Description: cells. The following applies: Mus musculus.
Description: Antiproliferative activity against mouse BaF3 cells harbouring ETV6-FGFR4-V550L mutant measured after 24 to 48 hrs by MTT assay
Data set [5] can be described thus: Metabolic stability in liver microsomes (unknown origin) assessed as half life. The class given is ADME, Microsome.
Data set [6] in a line: Antiproliferative activity against human L02 cells measured after 24 to 48 hrs by MTT assay. The class given is toxicity, cell-based.
Data set [7] concerns Huh-7. Description: Inhibition of colony formation in human Huh-7 cells assessed as reduction in number of colonies at 270 nM measured for 12 days. The class given is functional, cell-based. To be noted: time 12.0 day.
The test system of data set [8] is BaF3. Description: cells. To be noted: Mus musculus. The source holds these as a separate data set.
Description: Antiproliferative activity against mouse BaF3 cells harbouring ETV6-FGFR4-N535K mutant measured after 24 to 48 hrs by MTT assay
For data set [9], the system named is Hep 3B2. Kind of data set: Antiproliferative activity against human Hep3B cells measured after 24 to 48 hrs by MTT assay. It counts as functional, cell-based.
The subject of data set [10] is HepG2. Kind of data set: Antiproliferative activity against human HepG2 cells measured after 24 to 48 hrs by MTT assay. It counts as functional, cell-based.

SMILES strings stand for the structures. The source made the active and inactive calls. No cut-off for these calls is given here.

Fibroblast growth factor receptor 1, sequence (P11362 whole entry): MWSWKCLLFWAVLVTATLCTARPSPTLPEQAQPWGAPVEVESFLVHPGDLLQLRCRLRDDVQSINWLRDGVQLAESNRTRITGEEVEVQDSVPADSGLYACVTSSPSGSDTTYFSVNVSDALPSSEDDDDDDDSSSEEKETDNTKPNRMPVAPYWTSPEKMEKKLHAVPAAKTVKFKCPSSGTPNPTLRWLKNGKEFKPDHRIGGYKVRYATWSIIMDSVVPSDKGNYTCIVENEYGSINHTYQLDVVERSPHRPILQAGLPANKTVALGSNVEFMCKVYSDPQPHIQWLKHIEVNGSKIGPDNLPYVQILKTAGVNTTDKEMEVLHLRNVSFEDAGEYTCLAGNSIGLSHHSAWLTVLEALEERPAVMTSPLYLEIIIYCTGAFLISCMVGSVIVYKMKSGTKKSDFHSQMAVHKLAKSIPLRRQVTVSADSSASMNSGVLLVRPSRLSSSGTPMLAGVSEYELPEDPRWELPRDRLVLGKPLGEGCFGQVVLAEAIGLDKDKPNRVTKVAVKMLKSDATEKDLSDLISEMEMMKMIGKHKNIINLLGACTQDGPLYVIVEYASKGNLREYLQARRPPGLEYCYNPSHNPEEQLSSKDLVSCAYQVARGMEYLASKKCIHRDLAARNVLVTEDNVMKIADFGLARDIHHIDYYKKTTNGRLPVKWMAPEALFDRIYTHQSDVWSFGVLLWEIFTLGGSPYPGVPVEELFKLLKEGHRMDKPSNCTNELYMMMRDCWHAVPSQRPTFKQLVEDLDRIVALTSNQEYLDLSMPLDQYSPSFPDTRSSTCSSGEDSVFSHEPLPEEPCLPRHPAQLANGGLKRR
Fibroblast growth factor receptor 4, sequence (P22455 whole entry): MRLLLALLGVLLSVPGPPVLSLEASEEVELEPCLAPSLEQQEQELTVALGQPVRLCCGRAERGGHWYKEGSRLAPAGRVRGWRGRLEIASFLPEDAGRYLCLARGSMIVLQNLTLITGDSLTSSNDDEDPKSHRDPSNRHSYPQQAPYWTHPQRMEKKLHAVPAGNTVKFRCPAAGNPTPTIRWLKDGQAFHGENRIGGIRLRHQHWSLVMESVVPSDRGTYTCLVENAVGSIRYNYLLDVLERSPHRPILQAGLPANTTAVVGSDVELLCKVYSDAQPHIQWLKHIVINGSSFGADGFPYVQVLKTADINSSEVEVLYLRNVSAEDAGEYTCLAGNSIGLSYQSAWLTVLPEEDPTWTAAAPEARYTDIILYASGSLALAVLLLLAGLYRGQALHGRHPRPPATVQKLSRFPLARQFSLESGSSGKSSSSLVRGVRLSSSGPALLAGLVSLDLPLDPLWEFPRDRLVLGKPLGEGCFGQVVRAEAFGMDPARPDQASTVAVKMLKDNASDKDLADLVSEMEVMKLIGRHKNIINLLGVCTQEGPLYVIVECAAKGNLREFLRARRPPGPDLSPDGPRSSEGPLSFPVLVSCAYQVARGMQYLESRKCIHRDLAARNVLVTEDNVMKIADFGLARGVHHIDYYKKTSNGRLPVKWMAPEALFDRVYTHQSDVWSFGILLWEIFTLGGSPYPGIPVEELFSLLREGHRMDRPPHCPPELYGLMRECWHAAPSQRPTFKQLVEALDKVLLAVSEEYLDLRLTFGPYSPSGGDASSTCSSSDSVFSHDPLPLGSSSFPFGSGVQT

For `C=CC(=O)Nc1ccccc1-c1n[nH]c2ccc(OC(C)c3c(Cl)cncc3Cl)cc12` (racemic), the IC50 in data set [1] is 221 nM; in data set [2], more than 3000 nM.
For the compound `C=CC(=O)Nc1cc2c(cc1-c1n[nH]c3ccc(O[C@H](C)c4c(Cl)cncc4Cl)cc13)CN(S(C)(=O)=O)C2`, the results for the IC50 in data set [3], in data set [1] and in data set [2] were 3.5 nM, 48 nM and more than 3000 nM, respectively.
With `C=CC(=O)Nc1cc2c(cc1-c1n[nH]c3ccc(O[C@H](C)c4c(Cl)cncc4Cl)cc13)CN(C)C2`, the IC50 in data set [3] was 2.7 nM; in data set [1] it was 50 nM; in data set [2], more than 3000 nM.
In the case of `C=CC(=O)Nc1ccccc1-c1n[nH]c2ccc(OCc3c(Cl)cccc3Cl)cc12`, the figures for the IC50 in data set [3] and in [1] were 764 nM and more than 3000 nM, respectively.
`C=CC(=O)Nc1ccccc1-c1n[nH]c2ccc(OC(C)c3c(F)cncc3F)cc12` (stereo not drawn): the IC50 in data set [3] is 42 nM; in data set [1], 1270 nM; in data set [2] it was more than 3000 nM.
In the case of `C=CC(=O)Nc1ccccc1-c1n[nH]c2ccc(OCc3ccccn3)cc12`, the IC50 in data set [3] is 481 nM; in data set [1], more than 3000 nM.
On to `C=CC(=O)Nc1ccccc1-c1n[nH]c2ccc(O[C@@H](C)c3c(Cl)cncc3Cl)cc12`, for which the IC50 in data set [1] was more than 3000 nM.
As for `C=CC(=O)Nc1cc2c(cc1-c1n[nH]c3ccc(O[C@H](C)c4c(Cl)cncc4Cl)cc13)CN(CCO)CC2`, the IC50 was 6.2 nM in data set [3], 275 nM in data set [1] and more than 3000 nM in data set [2].
`C=CC(=O)Nc1cc2c(cc1-c1n[nH]c3ccc(O[C@H](C)c4c(Cl)cncc4Cl)cc13)CN(C)CC2`: the IC50 in data set [3] was 3.1 nM; in [1], 132 nM; in data set [2], more than 3000 nM.
For `C=CC(=O)Nc1cc2c(cc1-c1n[nH]c3ccc(O[C@H](C)c4c(Cl)cncc4Cl)cc13)CCN(CCOC)C2` the same measures were 2.5 nM, 54 nM and more than 3000 nM.
For the compound `C=CC(=O)Nc1cc2c(cc1-c1n[nH]c3ccc(O[C@H](C)c4c(Cl)cncc4Cl)cc13)CN(CCO)C2`, the IC50 in data set [3] is 1.9 nM; in data set [1], 67 nM; in [2], more than 3000 nM.
As for `C=CC(=O)Nc1ccccc1-c1n[nH]c2ccc(OC(C)c3ccncc3)cc12` (stereo not drawn), the IC50 in data set [3] is 169 nM; in data set [1], more than 3000 nM; in data set [2], more than 3000 nM.
Turning to `C=CC(=O)Nc1cc2c(cc1-c1n[nH]c3ccc(O[C@H](C)c4c(Cl)cncc4Cl)cc13)CN(CCOC)CC2`, the IC50 was 9.7 nM in data set [3], 753 nM in [1] and more than 3000 nM in [2].
For `C=CC(=O)Nc1ccccc1-c1n[nH]c2ccc(O[C@H](C)c3c(Cl)cncc3Cl)cc12`, the IC50 was 80 nM in [1] and more than 3000 nM in [2].
As for `C=CC(=O)Nc1ccccc1-c1n[nH]c2ccc(OC(C)c3c(Cl)cccc3Cl)cc12` (stereo not drawn), the IC50 in data set [3] is 252 nM; in [1], more than 3000 nM.
`C=CC(=O)Nc1ccc(N2CCOCC2)cc1-c1n[nH]c2ccc(O[C@H](C)c3c(Cl)cncc3Cl)cc12`: the IC50 was 2.5 nM in [3]; 3 nM in [4]; 20 nM in data set [1]; more than 10000 nM in data set [6]; more than 3000 nM in data set [2]. Further, the half-life in data set [5] was found to be 2.73 min.
In the case of `C=CC(=O)Nc1ccc(F)cc1-c1n[nH]c2ccc(O[C@H](C)c3c(Cl)cncc3Cl)cc12`, the IC50 in [3] was 3.2 nM; in data set [1], 324 nM; in data set [2] it was more than 3000 nM.
With `C=CC(=O)Nc1ccccc1-c1n[nH]c2ccc(OCc3cccnc3)cc12`, the IC50 in data set [3] was 83 nM; in data set [1], more than 3000 nM; in data set [2] it was more than 3000 nM.
Regarding `C=CC(=O)Nc1cccc(-c2n[nH]c3ccc(O[C@H](C)c4c(Cl)cncc4Cl)cc23)c1`, the IC50 in [3] was 1200 nM; in [1] it was 2440 nM; in data set [2], more than 3000 nM.
On to `C=CC(=O)Nc1cc(N2CCOCC2)ccc1-c1n[nH]c2ccc(O[C@H](C)c3c(Cl)cncc3Cl)cc12`, for which the IC50 in data set [3] is 2.2 nM; in data set [4], 2 nM; in data set [1] it was 17 nM; in [6], more than 10000 nM; in [2] it was more than 3000 nM. In addition, the half-life in data set [5] amounted to 1.37 min.
Turning to `C=CC(=O)Nc1cc2c(cc1-c1n[nH]c3ccc(O[C@H](C)c4c(Cl)cncc4Cl)cc13)CCN(CCO)C2`, the IC50 in [3] is 2.6 nM; in [4] it was 1 nM; in [1] it was 30 nM; in [6], more than 10000 nM; in data set [2], more than 3000 nM. The half-life in data set [5] is 3.04 min.
Consider `C=CC(=O)Nc1ccccc1-c1n[nH]c2ccc(OCc3c(Cl)cncc3Cl)cc12`, for which the IC50 in data set [3] is 27 nM; in data set [1], 754 nM; in [2] it was more than 3000 nM.
Consider `C=CC(=O)Nc1ccccc1-c1n[nH]c2ccc(OCc3ccncc3)cc12`, for which the IC50 in data set [3] was 243 nM; in data set [1] it was more than 3000 nM.
As to `C=CC(=O)Nc1cc(N2CCN(C)CC2)ccc1-c1n[nH]c2ccc(O[C@H](C)c3c(Cl)cncc3Cl)cc12`, the IC50 in data set [3] was 1.8 nM; in data set [4], 2 nM; in data set [1] it was 12 nM; in data set [6], 3940 nM; in data set [2] it was more than 3000 nM. Also, in [5], the half-life was determined as 3.8 min.
As for `C=CC(=O)Nc1cc2c(cc1-c1n[nH]c3ccc(O[C@H](C)c4c(Cl)cncc4Cl)cc13)CN(CCOC)C2`, the IC50 in [3] is 3.2 nM; in data set [1], 193 nM; in data set [2], more than 3000 nM.
`C=CC(=O)N[C@H]1CCOC[C@H]1Nc1ncc2cc(-c3c(Cl)c(OC)cc(OC)c3Cl)ccc2n1` [FISOGATINIB]: the inhibition entry in data set [7] was “Active”. Besides, the IC50 in data set [3] is 3.9 nM; in data set [4], 396 nM; in data set [8], 528 nM; in [9] it was 46 nM; in data set [6], more than 10000 nM; in data set [10], 4430 nM. The same compound displayed an IC50 in data set [2] of 1030 nM.
Consider `C=CC(=O)Nc1ccc(N2CCN(C)CC2)cc1-c1n[nH]c2ccc(O[C@H](C)c3c(Cl)cncc3Cl)cc12`, for which the IC50 was 2.1 nM in data set [3]; 1 nM in data set [4]; 15 nM in data set [1]; 4280 nM in data set [6]; more than 3000 nM in [2]. In [5], the half-life turned out to be 2.41 min.
Regarding `C=CC(=O)Nc1cc(F)ccc1-c1n[nH]c2ccc(O[C@H](C)c3c(Cl)cncc3Cl)cc12`, the IC50 in data set [3] was 3.5 nM; in data set [1], 190 nM; in data set [2], more than 3000 nM.
For the compound `C=CC(=O)Nc1cc2c(cc1-c1n[nH]c3ccc(O[C@H](C)c4c(Cl)cncc4Cl)cc13)CN(C(=O)OC(C)(C)C)C2`, the IC50 is 859 nM in [1] and more than 3000 nM in data set [2].
